Source: ChEMBL document CHEMBL3885881, “DrugMatrix”

Species: Rattus norvegicus
Experiment: DrugMatrix - Regimen: Daily Repeat
Type: toxicity, organism-based, Sprague-Dawley
Parameters: regimen Daily Repeat, gender Male, age 6-8 weeks
Details: in vivo, po, 35 mg/kg, route oral GAVAGE, dose level High, vehicle .5 % CMC; for ABSOLUTE BASOPHIL / ABSOLUTE EOSINOPHIL / ABSOLUTE LYMPHOCYTE / ABSOLUTE MONOCYTE / ABSOLUTE SEGMENTED NEUTROPHIL / BASOPHIL / EOSINOPHIL / ERYTHROCYTE COUNT / HEMATOCRIT / HEMOGLOBIN / LEUKOCYTE COUNT / LYMPHOCYTE / MEAN CORPUSCULAR HEMOGLOBIN / MEAN CORPUSCULAR HEMOGLOBIN CONCENTRATION / MEAN CORPUSCULAR VOLUME / MONOCYTE / NEUTROPHIL / NUCLEATED RED BLOOD CELLS / PLATELET COUNT: tissue Blood; for ALANINE AMINOTRANSFERASE / ALBUMIN / ALKALINE PHOSPHATASE / ASPARTATE AMINOTRANSFERASE / BLOOD UREA NITROGEN / CARBON DIOXIDE / CHLORIDE / CHOLESTEROL / CREATINE PHOSPHOKINASE / CREATININE / GLUCOSE / LACTATE DEHYDROGENASE / LIPASE / PHOSPHORUS / POTASSIUM / SODIUM / TOTAL BILIRUBIN / TOTAL PROTEIN / URIC ACID: tissue Plasma

Structure (SMILES): COc1cc(CNC(=O)CCCC/C=C/C(C)C)ccc1O [CAPSAICIN]
- ABSOLUTE BASOPHIL (72 h, time 3 day): 0 CELLS/uL
- ABSOLUTE EOSINOPHIL (72 h, time 3 day): 0 CELLS/uL
- ABSOLUTE LYMPHOCYTE (72 h, time 3 day): 7477.33 CELLS/uL
- ABSOLUTE MONOCYTE (72 h, time 3 day): 60 CELLS/uL
- ABSOLUTE SEGMENTED NEUTROPHIL (72 h, time 3 day): 496 CELLS/uL
- BASOPHIL (72 h, time 3 day): 0%
- EOSINOPHIL (72 h, time 3 day): 0%
- ERYTHROCYTE COUNT (72 h, time 3 day): 5.28 x10E6/uL
- HEMATOCRIT (72 h, time 3 day): 33.53%
- HEMOGLOBIN (72 h, time 3 day): 12.7 G/DL
- LEUKOCYTE COUNT (72 h, time 3 day): 8.03 x10E3/uL
- LYMPHOCYTE (72 h, time 3 day): 92.67%
- MEAN CORPUSCULAR HEMOGLOBIN (72 h, time 3 day): 24.13 pg
- MEAN CORPUSCULAR HEMOGLOBIN CONCENTRATION (72 h, time 3 day): 37.9 G/DL
- MEAN CORPUSCULAR VOLUME (72 h, time 3 day): 63.63 fL
- MONOCYTE (72 h, time 3 day): 1%
- NEUTROPHIL (72 h, time 3 day): 6.33%
- NUCLEATED RED BLOOD CELLS (72 h, time 3 day): 0.33 /100WBC
- PLATELET COUNT (72 h, time 3 day): 1342.33 x10E3/uL
- ALANINE AMINOTRANSFERASE (72 h, time 3 day): 44 u/L
- ALBUMIN (72 h, time 3 day): 4.33 G/DL
- ALKALINE PHOSPHATASE (72 h, time 3 day): 316 u/L
- ASPARTATE AMINOTRANSFERASE (72 h, time 3 day): 71.33 u/L
- BLOOD UREA NITROGEN (72 h, time 3 day): 17.33 mg/dL
- CARBON DIOXIDE (72 h, time 3 day): 27.67 mmol/L
- CHLORIDE (72 h, time 3 day): 103.5 MEQ/L
- CHOLESTEROL (72 h, time 3 day): 75.67 mg/dL
- CREATINE PHOSPHOKINASE (72 h, time 3 day): 217 u/L
- CREATININE (72 h, time 3 day): 0.22 mg/dL
- GLUCOSE (72 h, time 3 day): 141.67 mg/dL
- LACTATE DEHYDROGENASE (72 h, time 3 day): 119.33 u/L
- LIPASE (72 h, time 3 day): 8.5 u/L
- PHOSPHORUS (72 h, time 3 day): 11.67 mg/dL
- POTASSIUM (72 h, time 3 day): 5.75 MEQ/L
- SODIUM (72 h, time 3 day): 147.2 MEQ/L
- TOTAL BILIRUBIN (72 h, time 3 day): 0.27 mg/dL
- TOTAL PROTEIN (72 h, time 3 day): 6.13 G/DL
- URIC ACID (72 h, time 3 day): 1.1 mg/dL
- ABSOLUTE BASOPHIL (120 h, time 5 day): 0 CELLS/uL
- ABSOLUTE EOSINOPHIL (120 h, time 5 day): 117.33 CELLS/uL
- ABSOLUTE LYMPHOCYTE (120 h, time 5 day): 12147.67 CELLS/uL
- ABSOLUTE MONOCYTE (120 h, time 5 day): 58.67 CELLS/uL
- ABSOLUTE SEGMENTED NEUTROPHIL (120 h, time 5 day): 1243 CELLS/uL
- BASOPHIL (120 h, time 5 day): 0%
- EOSINOPHIL (120 h, time 5 day): 1%
- ERYTHROCYTE COUNT (120 h, time 5 day): 5.71 x10E6/uL
- HEMATOCRIT (120 h, time 5 day): 34.97%
- HEMOGLOBIN (120 h, time 5 day): 13.33 G/DL
- LEUKOCYTE COUNT (120 h, time 5 day): 13.57 x10E3/uL
- LYMPHOCYTE (120 h, time 5 day): 88.67%
- MEAN CORPUSCULAR HEMOGLOBIN (120 h, time 5 day): 23.4 pg
- MEAN CORPUSCULAR HEMOGLOBIN CONCENTRATION (120 h, time 5 day): 38.13 G/DL
- MEAN CORPUSCULAR VOLUME (120 h, time 5 day): 61.27 fL
- MONOCYTE (120 h, time 5 day): 0.33%
- NEUTROPHIL (120 h, time 5 day): 10%
- NUCLEATED RED BLOOD CELLS (120 h, time 5 day): 0 /100WBC
- PLATELET COUNT (120 h, time 5 day): 1274 x10E3/uL
- ALANINE AMINOTRANSFERASE (120 h, time 5 day): 52.67 u/L
- ALBUMIN (120 h, time 5 day): 4.07 G/DL
- ALKALINE PHOSPHATASE (120 h, time 5 day): 391 u/L
- ASPARTATE AMINOTRANSFERASE (120 h, time 5 day): 83.67 u/L
- BLOOD UREA NITROGEN (120 h, time 5 day): 18 mg/dL
- CARBON DIOXIDE (120 h, time 5 day): 25.67 mmol/L
- CHLORIDE (120 h, time 5 day): 105.33 MEQ/L
- CHOLESTEROL (120 h, time 5 day): 62 mg/dL
- CREATINE PHOSPHOKINASE (120 h, time 5 day): 166.33 u/L
- CREATININE (120 h, time 5 day): 0.21 mg/dL
- GLUCOSE (120 h, time 5 day): 177 mg/dL
- LACTATE DEHYDROGENASE (120 h, time 5 day): 115.67 u/L
- LIPASE (120 h, time 5 day): 8.67 u/L
- PHOSPHORUS (120 h, time 5 day): 13.17 mg/dL
- POTASSIUM (120 h, time 5 day): 6.01 MEQ/L
- SODIUM (120 h, time 5 day): 146.17 MEQ/L
- TOTAL BILIRUBIN (120 h, time 5 day): 0.17 mg/dL
- TOTAL PROTEIN (120 h, time 5 day): 6.03 G/DL
- URIC ACID (120 h, time 5 day): 1.8 mg/dL
